Assay results reported in EP0831769B2, “NOVEL USES FOR THYROID HORMONES OR THYROID HORMONE-LIKE COMPOUNDS” (Lavin, Dr., Thomas N., priority 1995, dated 1996).
Where “and” joins values, the source holds several entries; their conditions need not be identical. Equal values may be shown once. Entries after “also recorded” stand apart in the source; their conditions may differ. Read-outs that look alike come from different tables or passages of the source.

Experiments:
Skin-2 model ZK1301 = test: Skin-2 model: mRNA expression by RT-PCR, semi-quantitative;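 note: Three-dimensional human skin equivalent of dermal fibroblasts and foreskin keratinocytes at an air-liquid interface, exposed for 10 or 48 h, mRNA measured in total RNA by RT-PCR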
Text: A novel synthetic human skin, Skin- 2 model ZK1301 (Advanced Tissue Sciences, La Jolla (USA)) is composed of a three dimensional human skin culture consisting of a dermal fibroblast layer and human foreskin keratinocytes which can be grown with an air-keratinocyte interface to promote normal differentiation and cornification of the model skin.
The following were components of the Skin^2 kits: 9x9 mm skin tissues on agarose, 6-well plates, and Millicell inserts. Two media based on Dulbecco's Modification of Eagle's medium were also included: Maintenance medium (containing 5% fetal calf serum) and serum-free assay medium.
All-trans-retinoic acid, 1,25-(OH)2-vitamin D3, and betamethasone were purchased from Sigma Chemicals (Stockholm). Upon arrival the skin tissues were placed dermal-side down into the center of a Millicell in a 6-well plate well containing prewarmed maintenance medium. The tissues were incubated at 37°C in an atmosphere of 5% CO2 in air. After 24 h the maintenance medium was exchanged.
Following another 24 h the Maintenance medium was removed and replaced by Serum- free assay medium containing 5% "stripped" fetal calf serum. Substances were added within 1 h after medium exchange and the tissues were incubated for 10 or 48 h in the presence of the substances. Medium and substances were changed after 24 h incubation. The cells were grown at an air - liquid interface. At the end of the 48 h-incubation period two tissues were pooled together in a sterile plastic centrifugation tube. The tissue was snap frozen on solid ice (-60°C) and stored at -70°C until used. Duplicate samples were included for each treatment.
Total RNA was extracted from Skin^2 -samples and human skin biopsies using Ultraspec II (Biotecx Laboratories, Inc., Houston, TX). One ml of Ultraspec II was added to each sample which were homogenized by using a Polytron for 2x20 sec at setting 6. Total RNA was extracted according to the protocol supplied by the manufacturer. […] After incubation at 37°C for 60 min, the reaction was stopped by heating at 75°C for 10 min and the mixture stored at -70°C until cDNA amplification was performed.
The tubes were placed in a Thermal cycler (Perkin-Elmer) programmed as follows: (a) 90°C for 90 s; (b) variable number of cycles (see Table 1) of the following sequential steps: 60 s at 94°C, 75 s at annealing temp (see Table 1), 90 s at 72°C; and (c) 7 min at 72°C. […] Gels were recorded by videoprints. The amount of product was estimated on the videopoint or directly on the gel. The amount of transcripts in each lane were compared in relation to two control samples run in parallel.

human thyroid receptor = molecular target: T1, human thyroid receptor (Homo sapiens, UniProt P10828); test: Thyroid hormone receptor binding affinity
T1 sequence (P10828 1-461): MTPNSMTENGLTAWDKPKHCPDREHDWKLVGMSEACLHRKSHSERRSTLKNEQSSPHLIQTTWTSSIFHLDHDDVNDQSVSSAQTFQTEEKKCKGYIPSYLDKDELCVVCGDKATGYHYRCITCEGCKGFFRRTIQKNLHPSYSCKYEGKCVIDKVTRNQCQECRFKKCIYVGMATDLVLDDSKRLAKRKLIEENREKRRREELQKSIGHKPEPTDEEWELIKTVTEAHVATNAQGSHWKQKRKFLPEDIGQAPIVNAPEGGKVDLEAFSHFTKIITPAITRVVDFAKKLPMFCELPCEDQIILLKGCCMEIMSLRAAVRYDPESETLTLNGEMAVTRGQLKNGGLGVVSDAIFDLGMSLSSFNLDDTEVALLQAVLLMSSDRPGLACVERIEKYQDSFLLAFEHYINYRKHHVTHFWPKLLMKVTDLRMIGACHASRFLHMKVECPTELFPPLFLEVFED
Text: Partial agonist/antagonists also may exist. (Suitable ligands may be agonists or antagonists).

Hairless mice SKH-1 = test: Photodamaged skin: UV-B irradiated hairless mice treated with cream for 16 weeks; type: in vivo; conditions: cream for 16 weeks after 12 weeks of UV-B irradiation, compared to untreated irradiated animals
Experimental: Hairless mice SKH-1 are UV-B irradiated according to the schedule of (22). After 12 weeks of irradiation, significant wrinkling results. The mice are treated with the thyroid hormone Triac-containing cream for a period of 16 weeks after irradiation. The degree of wrinkling appearing on the irradiated mice is compared to untreated, irradiated animals to which the appropriate pharmaceutical base is not applied.

phosphodiesterase = conditions: in vitro, isolated adipocytes; FR2354101; cited from earlier work
[1] = Table 3, Skin-2 model, 1 µM, transcriptional response score
[2] = Table 3, Skin-2 model, 10uM, transcriptional response score
[3] = Table 3, Skin-2 model, 10uM, transcriptional response score, listed as L-T-I
[4] = Skin-2 model, 1 µM, semi quantitative mRNA change vs control
[5] = Skin-2 model, 50 nM, semi quantitative mRNA change vs control
[6] = Table 3, Skin-2 model, 50nM, transcriptional response score

SMILES | col a-1 (Skin-2 model ZK1301; [1]) | col a-3 (Skin-2 model ZK1301; [1]) | gf(pdgf-L) (Skin-2 model ZK1301; [1]) | k1 (Skin-2 model ZK1301; [1]) | k10 (Skin-2 model ZK1301; [1]) | k16 (Skin-2 model ZK1301; [1]) | scce (Skin-2 model ZK1301; [1]) | trans gk (Skin-2 model ZK1301; [1]) | Ki (human thyroid receptor) [nM] | IL-6 (Skin-2 model ZK1301; [4]) | col 1A-1 (Skin-2 model ZK1301; [4]) | col 3A-1 (Skin-2 model ZK1301; [4]) | crabp-II (Skin-2 model ZK1301; [4]) | k1 (Skin-2 model ZK1301; [4]) | k10 (Skin-2 model ZK1301; [4]) | k16 (Skin-2 model ZK1301; [4]) | k19 (Skin-2 model ZK1301; [4]) | tgfbeta-2 (Skin-2 model ZK1301; [4]) | trans gk (Skin-2 model ZK1301; [4]) | further results
N[C@@H](Cc1cc(I)c(Oc2ccc(O)c(I)c2)c(I)c1)C(=O)O [compound number 1, Trilodothyronine] | 1 | 2 | 1 | -2 | -0.5 | 0 | 0.5 | 0 | – | – | – | – | – | – | – | – | – | – | – | –
Cc1cc(C[C@H](N)C(=O)O)cc(C)c1Oc1ccc(O)c(C(C)C)c1 [compound number 6, 1-3,5-Dimethyl-3'-isopropylthyronine] | 1 | 0.5 | 1 | -2 | -1 | 0 | -1 | -2 | – | – | – | – | – | – | – | – | – | – | – | Ki (human thyroid receptor; Table 3, binding affinity to the human thyroid receptor, read-out: Ki): 75 nM
N[C@@H](Cc1ccc(Oc2ccc(O)cc2)c(I)c1)C(=O)O [L-T-1, 3-idodo-L-Thronine] | – | – | – | – | – | – | – | – | 20000 | – | – | – | – | – | – | – | – | – | – | binding to the thyroid hormone receptor (in words) (human thyroid receptor; b58: even at the tested ten micromolar concentration): no thyroid hormone receptor binding activity; also recorded: binds poorly; col a-1 (Skin-2 model ZK1301; [2]): 0.5; col a-3 (Skin-2 model ZK1301; [2]): 0.5; gf(pdgf-L) (Skin-2 model ZK1301; [2]): 1; k1 (Skin-2 model ZK1301; [2]): 0; k10 (Skin-2 model ZK1301; [2]): 0; k16 (Skin-2 model ZK1301; [2]): 0; scce (Skin-2 model ZK1301; [2]): 1; trans gk (Skin-2 model ZK1301; [2]): 1; col a-1 (Skin-2 model ZK1301; [3]): only modest effects; col a-3 (Skin-2 model ZK1301; [3]): only modest effects; k1 (Skin-2 model ZK1301; [3]): no inhibition; k10 (Skin-2 model ZK1301; [3]): no inhibition; scce (Skin-2 model ZK1301; [3]): positive effect; trans gk (Skin-2 model ZK1301; [3]): positive effect
N[C@@H](Cc1cc(I)c(Oc2cc(I)c(O)c(I)c2)c(I)c1)C(=O)O [compound number 3, Thyroxine] | 2 | 0.5 | 1 | -2 | -1 | 0 | 0 | 1 | – | – | – | – | – | – | – | – | – | – | – | –
CC1=C(/C=C/C(C)=C/C=C/C(C)=C/C(=O)O)C(C)(C)CCC1 [RA, All-trans-retinoic acid] | – | – | – | – | – | – | – | – | – | -1 | 2 | 1 | 1 | -3 | -1 | -0.5 | -1 | 2 | -3 | ctgf(pdgf-L) (Skin-2 model ZK1301; [4]): 1
NC(Cc1cc(Br)c(Oc2ccc(O)c(Cc3ccc(=O)[nH]n3)c2)c(Br)c1)C(=O)O (stereo not shown) [compound number 5] | 0 | 0 | – | – | – | -0.5 | – | – | 8 | – | – | – | – | – | – | – | – | – | – | relative selectivity of gene responses (Skin-2 model ZK1301; Skin-2 model, 1 µM, epidermal differentiation genes versus collagen genes): relative selectively for keratin 1, tranglutaminase K and SCCE responses over collagen responses
Cc1cc(NC(=O)C(=O)O)cc(C)c1Oc1ccc(O)c(C(C)C)c1 [compound number 7, N-[3,5-Dimethy-4-(4'-hydroxy-3'-isopropylphenoxy)-phenyl]oxamic Acid] | 1 | 1 | 1 | -1 | 1 | 0.5 | -1 | -1 | 0.1 | – | – | – | – | – | – | – | – | – | – | –
C=C1C(=CC=C2CCCC3(C)C2CCC3C(C)CCCC(C)(C)O)CC(O)CC1O (stereo not shown) [vit D, 1,25-(OH)2-vitamin D3] | – | – | – | – | – | – | – | – | – | -1 | 2 | 2 | -1 | 0 | -1 | 0 | 0 | 2 | -1 | ctgf(pdgf-L) (Skin-2 model ZK1301; [4]): 0; scce (Skin-2 model ZK1301; [4]): 0
O=C(O)c1cc(I)c(Oc2ccc(O)c(I)c2)c(I)c1 [compound number 2] | 2 | 1 | 1 | -1 | 0 | 0 | 0.5 | 0.5 | 0.1 | – | – | – | – | – | – | – | – | – | – | –
C[C@H]1C[C@H]2[C@@H]3CCC4=CC(=O)C=C[C@]4(C)[C@@]3(F)[C@@H](O)C[C@]2(C)[C@@]1(O)C(=O)CO [betameth, betamethasone] | – | – | – | – | – | – | – | – | – | -2 | 0.5 | -0.5 | -1 | -3 | -0.5 | -1 | -0.5 | 0 | -1 | ctgf(pdgf-L) (Skin-2 model ZK1301; [4]): 1; scce (Skin-2 model ZK1301; [4]): -1
O=C(O)Cc1cc(I)c(Oc2ccc(O)c(I)c2)c(I)c1 [Triac, tri-iodothyroacetic acid] | 1 | 1 | 2 and 1 | -1 | – | 0 | – | -0.5 | – | -0.5 | 2 | 1 | -1 | -2 | -2 | -0.5 | -1 | 2 | -3 | skin collagen (Hairless mice SKH-1): increase; wrinkle pattern of the animals (Hairless mice SKH-1): significant decrease; dose range at which phosphodiesterase inhibition and cyclic AMP increase occur (phosphodiesterase): approximately 10^-4 M; ctgf(pdgf-L) (Skin-2 model ZK1301; [5]): 1; k16 (Skin-2 model ZK1301; [5]): -1; k19 (Skin-2 model ZK1301; [5]): -1; scce (Skin-2 model ZK1301; [4]): -2; k1 (Skin-2 model ZK1301; [6]): -2; k16 (Skin-2 model ZK1301; [6]): 0
